{
  "source": "patent US20190381127A1",
  "about": "“COMBINATION THERAPY WITH A6, CHEMOTHERAPEUTIC AGENTS, RADIATION THERAPY, OR A COMBINATION THEREOF FOR THE TREATMENT OF CANCER” (Splash Pharmaceuticals, Inc., priority 2016, published 2019)",
  "key": {"[1]": {"test_system": "U87MG human glioma cells", "assay": "Subcutaneous glioma xenograft", "format": "in vivo, BALB/c (nu/nu) mice"}, "[2]": {"test_system": "U87MG human glioma cells", "assay": "Intracranial glioma xenograft", "format": "in vivo, BALB/c (nu/nu) mice"}, "[3]": {"test_system": "A2780/CP cells", "assay": "CCK-8 cytotoxicity, A6 plus DDP", "format": "cell-based, human", "description": "Study Conditions. Drugs: […] Drug exposure time: 1 hour; Cell line: […] Media: RPMI 1640 plus 10% FBS containing 1 mM penicillin/streptomycin; Cytotoxicity Assays: CCK-8 (Cell Counting Kit 8-Dojindo Molecular Technologies). Tissue culture plates containing 96-well plates were seeded with 4000 cells in 100 μl of media per well. The wells on rows A-[…] cells, while the wells on rows E-[…]/CP cells. […] After 1 h, increasing concentrations of DDP were added to triplicate wells in 100 μl medium. […] The cells were then allowed to grow for 96 h following which the plates were assayed for relative cell growth with the CCK-8 assay. CCK-8 assay. Five μl of CCK-8 stain was added to each well and the plate was incubated at 37° C. incubator for 4 h. The plate was read with a microplate reader at a wavelength of 450 nm. (See FIGS. 5A-5D and FIG. 6). The assay was performed using triplicate wells for each DDP concentration. The data in the tables below is the optical density in the well which is a function of the number of live cells remaining at the end of the 96 h growth period."}, "[4]": {"test_system": "IGROV-1/CP cells", "assay": "CCK-8 cytotoxicity, A6 plus DDP", "format": "cell-based, human", "description": "Study Conditions. Drugs: […] Drug exposure time: 1 hour; Cell line: IGROV-1 and its DDP-resistant subline IGROV-1/CP; Media: RPMI 1640 plus 10% FBS containing 1 mM penicillin/streptomycin; Cytotoxicity Assays: CCK-8 (Cell Counting Kit 8—Dojindo Molecular Technologies). Tissue culture plates containing 96-well plates were seeded with 4000 cells in 100 μl of media per well. The wells on rows A-D were seeded with IGROV-1 cells, while the wells on rows E-H were seeded with IGROV-1/CP cells. […] After 1 h, increasing concentrations of DDP were added to triplicate wells in […] medium. […] The cells were then allowed to grow for 96 h following which the plates were assayed for relative cell growth with the CCK-8 assay. CCK-8 assay. […] of CCK-8 stain was added to each well and the plate was incubated at 37° C. incubator for 4 h. The plate was read with a microplate reader at a wavelength of 450 nm. (See FIGS. 7A-7D and FIG. 8). The assay was performed using triplicate wells for each DDP concentration. The data in the tables below is the optical density in the well which is a function of the number of live cells remaining at the end of the 96 h growth period."}, "[5]": {"test_system": "HEY/C2 (DDP resistant) cells", "assay": "CCK-8 cytotoxicity of DDP/PTX with or without A6", "format": "cell-based", "conditions": "72 hours", "description": "The cells were plated in 96-well plates as described and incubated overnight. […] The CCK-8 assay described herein was performed to access cytotoxicity of DDP/PTX."}, "[6]": {"biological_target": "T1, CD44 on B16-F10 melanoma cells (UniProt P15379 23-778)", "T1 sequence (looked up)": "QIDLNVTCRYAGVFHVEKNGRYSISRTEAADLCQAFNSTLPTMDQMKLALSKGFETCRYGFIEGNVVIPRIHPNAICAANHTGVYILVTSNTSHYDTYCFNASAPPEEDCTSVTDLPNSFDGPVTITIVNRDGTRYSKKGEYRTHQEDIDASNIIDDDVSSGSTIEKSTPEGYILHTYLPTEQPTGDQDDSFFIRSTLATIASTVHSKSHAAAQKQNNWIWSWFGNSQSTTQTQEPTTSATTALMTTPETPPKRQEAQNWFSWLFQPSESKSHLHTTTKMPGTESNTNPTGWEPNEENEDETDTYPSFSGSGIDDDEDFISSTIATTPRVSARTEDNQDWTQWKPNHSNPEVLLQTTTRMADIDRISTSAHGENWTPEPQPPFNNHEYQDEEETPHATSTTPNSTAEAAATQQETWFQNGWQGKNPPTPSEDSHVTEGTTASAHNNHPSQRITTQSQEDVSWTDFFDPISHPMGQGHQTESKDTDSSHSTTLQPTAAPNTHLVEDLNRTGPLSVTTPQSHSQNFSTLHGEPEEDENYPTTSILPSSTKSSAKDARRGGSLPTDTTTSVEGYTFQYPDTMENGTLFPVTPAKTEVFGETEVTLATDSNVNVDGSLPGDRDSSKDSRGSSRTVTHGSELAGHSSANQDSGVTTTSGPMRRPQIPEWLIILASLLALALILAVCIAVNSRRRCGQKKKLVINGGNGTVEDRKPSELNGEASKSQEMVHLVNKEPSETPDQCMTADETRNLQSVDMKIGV", "assay": "cell-based or functional assay"}},
  "data": [
    {"molecule": "N.N.[Cl][Pt][Cl]", "note": "[cisplatin, reference compound]", "values": [
      {"measurement": "inhibition of subcutaneous tumor growth", "setting": "[1]", "result": 53, "unit": "%"},
      {"measurement": "inhibition of tumor growth", "setting": "[2]", "result": 82, "unit": "%"},
      {"measurement": "resistance of the cells to DDP", "setting": "[3]", "result": "not very resistant"},
      {"measurement": "resistance of the cells to DDP", "setting": "[4]", "result": "appeared not to be resistant"},
      {"measurement": "IC50 in HEY/C2 cells compared to HEY cells", "setting": "[5]", "result": "about 7 fold"}
    ]},
    {"molecule": "CC(=O)O[C@H]1C(=O)[C@@]2(C)[C@H]([C@H](OC(=O)c3ccccc3)[C@]3(O)C[C@H](OC(=O)[C@H](O)[C@@H](NC(=O)c4ccccc4)c4ccccc4)C(C)=C1C3(C)C)[C@]1(OC(C)=O)CO[C@@H]1C[C@@H]2O", "note": "[paclitaxel, reference compound]", "values": [
      {"measurement": "resistance of HEY/C2 cells compared to HEY cells", "setting": "[5]", "result": "resisted to paclitaxel"}
    ]},
    {"molecule": "Ac-KPSSPPEE-NH2", "note": "[A6 peptide (Ac-KPSSPPEE-NH2)]", "values": [
      {"measurement": "IC50 for A6 inhibition of chemotaxis in B16-F10 cells", "setting": "[6]", "result": 29, "unit": "nM"}
    ]}
  ]
}
